PubChem BioAssay (NCI)
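Exposure lasted 48 hours, with cells grown in 96-well plates and compounds tested at five concentrations. Definition used: TGI = concentration required for complete inhibition of growth.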

Key:
Assay in all cases: NCI tumour cell line growth inhibition, 48 h
786-0 renal = system: 786-0 renal
A498 renal = system: A498 renal
A549 NSCLC = system: A549 NSCLC
BT-549 breast = system: BT-549 breast
CAKI-1 renal = system: CAKI-1 renal
CCRF-CEM leukemia = system: CCRF-CEM leukemia
COLO 205 colon = system: COLO 205 colon
DU-145 prostate = system: DU-145 prostate
EKVX NSCLC = system: EKVX NSCLC
HCC-2998 colon = system: HCC-2998 colon
HCT-116 colon = system: HCT-116 colon
HCT-15 colon = system: HCT-15 colon
HL-60(TB) leukemia = system: HL-60(TB) leukemia
HS 578T breast = system: HS 578T breast
HT29 colon = system: HT29 colon
K-562 leukemia = system: K-562 leukemia
KM12 colon = system: KM12 colon
LOX IMVI melanoma = system: LOX IMVI melanoma
M14 melanoma = system: M14 melanoma
MALME-3M melanoma = system: MALME-3M melanoma
MCF7 breast = system: MCF7 breast
MDA-MB-231 breast = system: MDA-MB-231 breast
MDA-MB-435 = system: MDA-MB-435
MDA-N = system: MDA-N
MOLT-4 leukemia = system: MOLT-4 leukemia
NCI-H226 lung = system: NCI-H226 lung
NCI-H23 lung = system: NCI-H23 lung
NCI-H460 lung = system: NCI-H460 lung
NCI/ADR-RES ovarian = system: NCI/ADR-RES ovarian
OVCAR-3 ovarian = system: OVCAR-3 ovarian
OVCAR-4 ovarian = system: OVCAR-4 ovarian
OVCAR-5 ovarian = system: OVCAR-5 ovarian
OVCAR-8 ovarian = system: OVCAR-8 ovarian
PC-3 prostate = system: PC-3 prostate
RPMI-8226 leukemia = system: RPMI-8226 leukemia
RXF 393 renal = system: RXF 393 renal
SF-268 CNS = system: SF-268 CNS
SF-539 CNS = system: SF-539 CNS
SK-MEL-2 melanoma = system: SK-MEL-2 melanoma
SK-MEL-28 melanoma = system: SK-MEL-28 melanoma
SK-MEL-5 melanoma = system: SK-MEL-5 melanoma
SK-OV-3 ovarian = system: SK-OV-3 ovarian
SN12C renal = system: SN12C renal
SNB-19 CNS = system: SNB-19 CNS
SNB-75 CNS = system: SNB-75 CNS
SR leukemia = system: SR leukemia
SW-620 colon = system: SW-620 colon
T-47D breast = system: T-47D breast
TK-10 renal = system: TK-10 renal
U251 CNS = system: U251 CNS
UACC-257 melanoma = system: UACC-257 melanoma
UACC-62 melanoma = system: UACC-62 melanoma
UO-31 renal = system: UO-31 renal
ACHN renal = system: ACHN renal
HOP-62 NSCLC = system: HOP-62 NSCLC
IGROV1 ovarian = system: IGROV1 ovarian
NCI-H522 lung = system: NCI-H522 lung
SF-295 CNS = system: SF-295 CNS

`CSC(SC)=C(C#N)C(=O)Nc1ccc(Cl)cc1` was tested, and the TGI (786-0 renal) was over 100 µM, the TGI (A498 renal) was 90.4 µM and the TGI (A549 NSCLC) was over 100 µM. For the same compound, the TGI (BT-549 breast) was over 100 µM, the TGI (CAKI-1 renal) was 78.9 µM and the TGI (CCRF-CEM leukemia) was 74.9 µM. The TGI (COLO 205 colon) was 35.9 µM, the TGI (DU-145 prostate) was over 100 µM and the TGI (EKVX NSCLC) was over 100 µM. The TGI (HCC-2998 colon) was over 100 µM, the TGI (HCT-116 colon) was over 100 µM and the TGI (HCT-15 colon) was over 100 µM. It also gave a TGI (HL-60(TB) leukemia) of 69.3 µM, a TGI (HS 578T breast) of over 100 µM and a TGI (HT29 colon) of over 100 µM. The TGI (K-562 leukemia) was over 100 µM, the TGI (KM12 colon) was over 100 µM and the TGI (LOX IMVI melanoma) was 62.1 µM. For the same compound, the TGI (M14 melanoma) was over 100 µM, the TGI (MALME-3M melanoma) was over 100 µM and the TGI (MCF7 breast) was over 100 µM. It also gave a TGI (MDA-MB-231 breast) of over 100 µM, a TGI (MDA-MB-435) of over 100 µM and a TGI (MDA-N) of over 100 µM. For the same compound, the TGI (MOLT-4 leukemia) was 89.6 µM, the TGI (NCI-H226 lung) was 85.9 µM and the TGI (NCI-H23 lung) was over 100 µM. The TGI (NCI-H460 lung) was over 100 µM, the TGI (NCI/ADR-RES ovarian) was over 100 µM and the TGI (OVCAR-3 ovarian) was over 100 µM. It also gave a TGI (OVCAR-4 ovarian) of over 100 µM, a TGI (OVCAR-5 ovarian) of over 100 µM and a TGI (OVCAR-8 ovarian) of over 100 µM. It also gave a TGI (PC-3 prostate) of over 100 µM, a TGI (RPMI-8226 leukemia) of over 100 µM and a TGI (RXF 393 renal) of 54.9 µM. It also gave a TGI (SF-268 CNS) of over 100 µM, a TGI (SF-539 CNS) of 67.7 µM and a TGI (SK-MEL-2 melanoma) of over 100 µM. For the same compound, the TGI (SK-MEL-28 melanoma) was over 100 µM, the TGI (SK-MEL-5 melanoma) was over 100 µM and the TGI (SK-OV-3 ovarian) was over 100 µM. It also gave a TGI (SN12C renal) of over 100 µM, a TGI (SNB-19 CNS) of over 100 µM and a TGI (SNB-75 CNS) of over 100 µM. The TGI (SR leukemia) was over 100 µM, the TGI (SW-620 colon) was over 100 µM and the TGI (T-47D breast) was 85.3 µM. For the same compound, the TGI (TK-10 renal) was 72.6 µM, the TGI (U251 CNS) was over 100 µM and the TGI (UACC-257 melanoma) was over 100 µM. It also gave a TGI (UACC-62 melanoma) of over 100 µM and a TGI (UO-31 renal) of 65.2 µM.

For `CC(C)C(Sc1nc(N)nc2nc[nH]c12)C(=O)O` (stereo not drawn), the TGI (786-0 renal) was over 100 µM, the TGI (A498 renal) was over 100 µM and the TGI (A549 NSCLC) was over 100 µM. For the same compound, the TGI (ACHN renal) was over 100 µM, the TGI (BT-549 breast) was over 100 µM and the TGI (CAKI-1 renal) was over 100 µM. The TGI (CCRF-CEM leukemia) was over 100 µM, the TGI (COLO 205 colon) was over 100 µM and the TGI (DU-145 prostate) was over 100 µM. It also gave a TGI (EKVX NSCLC) of over 100 µM, a TGI (HCC-2998 colon) of over 100 µM and a TGI (HCT-116 colon) of over 100 µM. The TGI (HCT-15 colon) was over 100 µM, the TGI (HL-60(TB) leukemia) was over 100 µM and the TGI (HOP-62 NSCLC) was over 100 µM. The TGI (HS 578T breast) was over 100 µM, the TGI (HT29 colon) was over 100 µM and the TGI (IGROV1 ovarian) was over 100 µM. It also gave a TGI (K-562 leukemia) of over 100 µM, a TGI (KM12 colon) of over 100 µM and a TGI (LOX IMVI melanoma) of over 100 µM. It also gave a TGI (M14 melanoma) of over 100 µM, a TGI (MALME-3M melanoma) of over 100 µM and a TGI (MCF7 breast) of over 100 µM. It also gave a TGI (MDA-MB-231 breast) of over 100 µM, a TGI (MDA-MB-435) of over 100 µM and a TGI (MDA-N) of over 100 µM. For the same compound, the TGI (NCI-H226 lung) was over 100 µM, the TGI (NCI-H23 lung) was over 100 µM and the TGI (NCI-H460 lung) was over 100 µM. It also gave a TGI (NCI-H522 lung) of over 100 µM, a TGI (NCI/ADR-RES ovarian) of over 100 µM and a TGI (OVCAR-3 ovarian) of over 100 µM. For the same compound, the TGI (OVCAR-4 ovarian) was over 100 µM, the TGI (OVCAR-5 ovarian) was over 100 µM and the TGI (OVCAR-8 ovarian) was over 100 µM. The TGI (PC-3 prostate) was over 100 µM, the TGI (RPMI-8226 leukemia) was over 100 µM and the TGI (RXF 393 renal) was over 100 µM. It also gave a TGI (SF-268 CNS) of over 100 µM, a TGI (SF-295 CNS) of over 100 µM and a TGI (SK-MEL-2 melanoma) of over 100 µM. The TGI (SK-MEL-28 melanoma) was over 100 µM, the TGI (SK-MEL-5 melanoma) was over 100 µM and the TGI (SK-OV-3 ovarian) was over 100 µM. For the same compound, the TGI (SN12C renal) was over 100 µM, the TGI (SNB-19 CNS) was over 100 µM and the TGI (SNB-75 CNS) was over 100 µM. For the same compound, the TGI (SR leukemia) was over 100 µM, the TGI (SW-620 colon) was over 100 µM and the TGI (T-47D breast) was over 100 µM. It also gave a TGI (TK-10 renal) of over 100 µM, a TGI (U251 CNS) of over 100 µM and a TGI (UACC-257 melanoma) of over 100 µM. It also gave a TGI (UACC-62 melanoma) of over 100 µM and a TGI (UO-31 renal) of over 100 µM.

`CCN(CC)C(=O)N[C@@H](CC(C)C)C(=O)NC` gave a TGI (786-0 renal) of over 100 µM, a TGI (A498 renal) of over 100 µM and a TGI (A549 NSCLC) of over 100 µM. The TGI (ACHN renal) was over 100 µM, the TGI (BT-549 breast) was over 100 µM and the TGI (CAKI-1 renal) was over 100 µM. For the same compound, the TGI (CCRF-CEM leukemia) was over 100 µM, the TGI (COLO 205 colon) was over 100 µM and the TGI (DU-145 prostate) was over 100 µM. The TGI (EKVX NSCLC) was over 100 µM, the TGI (HCC-2998 colon) was over 100 µM and the TGI (HCT-116 colon) was over 100 µM. For the same compound, the TGI (HCT-15 colon) was over 100 µM, the TGI (HL-60(TB) leukemia) was over 100 µM and the TGI (HOP-62 NSCLC) was over 100 µM. It also gave a TGI (HS 578T breast) of over 100 µM, a TGI (HT29 colon) of over 100 µM and a TGI (IGROV1 ovarian) of over 100 µM. It also gave a TGI (K-562 leukemia) of over 100 µM, a TGI (KM12 colon) of over 100 µM and a TGI (LOX IMVI melanoma) of over 100 µM. It also gave a TGI (M14 melanoma) of over 100 µM, a TGI (MALME-3M melanoma) of over 100 µM and a TGI (MCF7 breast) of over 100 µM. For the same compound, the TGI (MDA-MB-231 breast) was over 100 µM, the TGI (MDA-MB-435) was over 100 µM and the TGI (MDA-N) was over 100 µM. The TGI (MOLT-4 leukemia) was over 100 µM, the TGI (NCI-H23 lung) was over 100 µM and the TGI (NCI-H460 lung) was over 100 µM. For the same compound, the TGI (NCI-H522 lung) was over 100 µM, the TGI (NCI/ADR-RES ovarian) was over 100 µM and the TGI (OVCAR-3 ovarian) was over 100 µM. It also gave a TGI (OVCAR-4 ovarian) of over 100 µM, a TGI (OVCAR-5 ovarian) of over 100 µM and a TGI (OVCAR-8 ovarian) of over 100 µM. For the same compound, the TGI (PC-3 prostate) was over 100 µM, the TGI (RPMI-8226 leukemia) was over 100 µM and the TGI (RXF 393 renal) was over 100 µM. The TGI (SF-268 CNS) was over 100 µM, the TGI (SF-295 CNS) was over 100 µM and the TGI (SK-MEL-2 melanoma) was over 100 µM. For the same compound, the TGI (SK-MEL-28 melanoma) was over 100 µM, the TGI (SK-MEL-5 melanoma) was over 100 µM and the TGI (SK-OV-3 ovarian) was over 100 µM. For the same compound, the TGI (SN12C renal) was over 100 µM, the TGI (SNB-19 CNS) was over 100 µM and the TGI (SNB-75 CNS) was over 100 µM. It also gave a TGI (SR leukemia) of over 100 µM, a TGI (SW-620 colon) of over 100 µM and a TGI (T-47D breast) of over 100 µM. For the same compound, the TGI (U251 CNS) was over 100 µM, the TGI (UACC-62 melanoma) was over 100 µM and the TGI (UO-31 renal) was over 100 µM.
